One molecule from patent US20050106236A1, “5-Ht4partial agonist pharmaceutical compositions” (priority 2001, published 2005) can be followed below.

A short description of this data set: Solubility of tegaserod in water. Particulars: at 25° C. in water. Format: physicochemical. On the procedure:
A preferred agent is tegaserod, a 5-HT4 partial agonist of formula [drawing 1] or pharmaceutically acceptable salt form thereof, e.g. the hydrogen maleate (hereinafter “hml”) salt. Tegaserod has a solubility of about 0.02% at 25° C. in water and is acid sensitive.

As for `CCCCCNC(=N)NN=Cc1c[nH]c2ccc(OC)cc12` [Tegaserod, 3-(5-methoxy-1H-Indol-3-yl-methylene)-N-pentylcarbazimidamide], the solubility result is on record as “about 0.02%”.
